ChEMBL document CHEMBL4038315, “Identification of Peptidic Antagonists of Vascular Endothelial Growth Factor Receptor 1 by Scanning the Binding Epitopes of Its Ligands” (J Med Chem, 2017)
The source made the active and inactive calls. No cut-off for these calls is given here. Positions of bridges follow the written chain, without caps; N, C: chain ends. Residues, ends and D or L forms follow the SMILES beside them.

Tested on: HUVEC
Details: Homo sapiens, 50 uM
Description: Antiangiogenic activity in HUVEC assessed as inhibition of VEGF-A-induced tube formation at 50 uM preincubated for 15 mins prior to VEGF-A addition measured after 4 hrs by matrigel assay

SMILES | inhibition
CSCC[C@@H]1NC(=O)[C@H](CC(C)C)NC(=O)[C@H](CCC(=O)O)NC(=O)[C@H](C(C)C)NC(=O)[C@H]([C@@H](C)O)NC(=O)[C@@H](NC(C)=O)CSSC[C@@H](C(N)=O)NC(=O)[C@@H]2CCCN2C(=O)[C@H](C(C)C)NC(=O)[C@H](CC(C)C)NC(=O)[C@H](CCC(N)=O)NC(=O)[C@H](CCCCN)NC(=O)[C@H](C)NC(=O)[C@H](C(C)C)NC(=O)[C@H]([C@@H](C)O)NC(=O)CNC1=O (Ac-CTVELMGTVAKQLVPC-NH2; disulfide 1-16) | Active
CC[C@H](C)[C@@H]1NC(=O)[C@H](Cc2ccc(O)cc2)NC(=O)[C@H](CCC(=O)O)NC(=O)[C@H]([C@@H](C)CC)NC(=O)[C@H](CCC(=O)O)NC(=O)[C@H](CC(=O)O)NC(=O)[C@@H]2CCCN2C(=O)[C@H](Cc2ccc(O)cc2)NC(=O)[C@H](CCC(=O)O)NC(=O)[C@H](CCC(N)=O)NC(=O)[C@H](Cc2ccccc2)NC(=O)[C@@H](N)CSSC[C@@H](C(=O)N[C@@H](CCCCN)C(N)=O)NC1=O (H-CFQEYPDEIEYICK-NH2; disulfide 1-13) | Active
CC[C@H](C)[C@@H]1NC(=O)[C@H](Cc2ccc(O)cc2)NC(=O)[C@H](CCC(=O)O)NC(=O)[C@H]([C@@H](C)CC)NC(=O)[C@H](CCC(=O)O)NC(=O)[C@H](CC(=O)O)NC(=O)[C@@H]2CCCN2C(=O)[C@H](Cc2ccc(O)cc2)NC(=O)[C@H](CCC(=O)O)NC(=O)[C@H](CCC(N)=O)NC(=O)[C@@H](N)CSSC[C@@H](C(=O)N[C@@H](CCCCN)C(N)=O)NC1=O (H-CQEYPDEIEYICK-NH2; disulfide 1-12) | Active
